Columns and labels:
[1] = tested on: Lactobacillus plantarum PN0512; assay: Growth of L. plantarum PN0512 in the presence of butanols at different temperatures (OD600); assay type: cell-based; parameters: key to Growth of L. plantarum PN0512 in the presence of 1-butanol / Growth of L. plantarum PN0512 in the presence of isobutanol / Growth of L. plantarum PN0512 in the presence of 2-butanol: +: growth observed as an increase in OD600.; −: no growth observed, i.e. no change in OD600
Procedure: Tolerance levels of bacterial strain Lactobacillus plantarum PN0512 (ATCC # PTA-7727) were determined at 25° C., 30° C. and 37° C. as follows. The strain was cultured in S30L medium (i.e., 10 mM ammonium sulfate, 5 mM potassium phosphate buffer, pH 7.0, 50 mM MOPS, pH 7.0, 2 mM MgCl2, 0.7 mM CaCl2, 50 μM MnCl2, 1 μM FeCl3, 1 μM ZnCl2, 1.72 μM CuCl2, 2.53 μM COCl2, 2.42 μM Na2MoO4, 2 μM thiamine hydrochloride, 10 mM glucose, and 0.2% yeast extract). An overnight culture in the absence of any test compound was started in 15 mL of the S30L medium in a 150 mL flask, with incubation at 37° C. in a shaking water bath. The next morning, the overnight culture was diluted into three 500 mL flasks containing 150 mL of fresh medium to an initial OD600 of about 0.08. Each flask was incubated in a shaking water bath, one each at 25° C., 30° C. and 37° C. Each large culture was allowed to acclimate at the test temperature for at least 0.5 h. […] Growth was followed by measuring OD600 for six hours after addition of the compounds.

[2] = tested on: B12-independent diol dehydratase; settings: Hartmanis et al. (1986); cited from earlier work
[3] = tested on: E. coli strain BW25113; assay: Survival of E. coli in MEK shock; assay type: cell-based, Escherichia coli; settings: for % Survival at 28° C. / % Survival at 37° C.: 30 min, average of duplicate experiments
Procedure: Survival of MEK shock was tested at exposure temperatures of 28° C. or 37° C.

**Q.** Which results are given for `CC(C)CO` [isobutanol]?
**A.** Growth of L. plantarum PN0512 in the presence of isobutanol ([1]; 0.5 % w/v, 37° C.): +; Growth of L. plantarum PN0512 in the presence of isobutanol ([1]; 1.0 % w/v, 37° C.): +; Growth of L. plantarum PN0512 in the presence of isobutanol ([1]; 1.5 % w/v, 25° C.): +; Growth of L. plantarum PN0512 in the presence of isobutanol ([1]; 1.5 % w/v, 30° C.): +; Growth of L. plantarum PN0512 in the presence of isobutanol ([1]; 1.5 % w/v, 37° C.): +; Growth of L. plantarum PN0512 in the presence of isobutanol ([1]; 1.6 % w/v, 37° C.): +; Growth of L. plantarum PN0512 in the presence of isobutanol ([1]; 1.8 % w/v, 37° C.): +; Growth of L. plantarum PN0512 in the presence of isobutanol ([1]; 2.0 % w/v, 25° C.): +; Growth of L. plantarum PN0512 in the presence of isobutanol ([1]; 2.0 % w/v, 30° C.): +; Growth of L. plantarum PN0512 in the presence of isobutanol ([1]; 2.0 % w/v, 37° C.): +; Growth of L. plantarum PN0512 in the presence of isobutanol ([1]; 2.1 % w/v, 37° C.): +; Growth of L. plantarum PN0512 in the presence of isobutanol ([1]; 2.3 % w/v, 37° C.): +; Growth of L. plantarum PN0512 in the presence of isobutanol ([1]; 2.4 % w/v, 25° C.): +; Growth of L. plantarum PN0512 in the presence of isobutanol ([1]; 2.4 % w/v, 30° C.): +; Growth of L. plantarum PN0512 in the presence of isobutanol ([1]; 2.4 % w/v, 37° C.): +; Growth of L. plantarum PN0512 in the presence of isobutanol ([1]; 2.7 % w/v, 25° C.): +; Growth of L. plantarum PN0512 in the presence of isobutanol ([1]; 2.7 % w/v, 30° C.): +; Growth of L. plantarum PN0512 in the presence of isobutanol ([1]; 2.7 % w/v, 37° C.): +; Growth of L. plantarum PN0512 in the presence of isobutanol ([1]; 2.9 % w/v, 25° C.): +; Growth of L. plantarum PN0512 in the presence of isobutanol ([1]; 2.9 % w/v, 30° C.): +; Growth of L. plantarum PN0512 in the presence of isobutanol ([1]; 2.9 % w/v, 37° C.): +; Growth of L. plantarum PN0512 in the presence of isobutanol ([1]; 3.1 % w/v, 25° C.): +; Growth of L. plantarum PN0512 in the presence of isobutanol ([1]; 3.1 % w/v, 30° C.): +; Growth of L. plantarum PN0512 in the presence of isobutanol ([1]; 3.1 % w/v, 37° C.): +; Growth of L. plantarum PN0512 in the presence of isobutanol ([1]; 3.3 % w/v, 25° C.): +; Growth of L. plantarum PN0512 in the presence of isobutanol ([1]; 3.3 % w/v, 30° C.): −^2; Growth of L. plantarum PN0512 in the presence of isobutanol ([1]; 3.4 % w/v, 37° C.): −; Growth of L. plantarum PN0512 in the presence of isobutanol ([1]; 3.6 % w/v, 25° C.): −; Growth of L. plantarum PN0512 in the presence of isobutanol ([1]; 3.8 % w/v, 37° C.): −; Growth of L. plantarum PN0512 in the presence of isobutanol ([1]; 4.3 % w/v, 37° C.): −; Concentration in which growth was observed ([1]; 25° C.): 3.5%; Concentration in which growth was not observed ([1]; 30° C.): 3.3%; Concentration in which growth was observed ([1]; 30° C.): 3.1%; Concentration in which growth was not observed ([1]; 37° C.): 3.4%; Concentration in which growth was observed ([1]; 37° C.): 3.1%; Growth of L. plantarum PN0512 in the presence of isobutanol ([1]; […] w/v, 25° C.): +; Growth of L. plantarum PN0512 in the presence of isobutanol ([1]; […] w/v, 37° C.): +

**Q.** With `CC(O)C(C)O` (centres unmarked) [2,3-butanediol] as the compound, how does the “Activity relative to the activity towards ethanediol” value [2] read?
**A.** less than 1%

**Q.** What does the source list for `CCC(C)=O` [MEK, 2-butanone]?
**A.** Concentration with full survival ([3]; 28° C.): 6 % w/v; Concentration with full survival ([3]; 37° C.): 4 % w/v; Concentration with no survival ([3]; 37° C.): 6 % w/v; % Survival at 28° C. ([3]; MEK 4 % w/v): 100%; % Survival at 37° C. ([3]; MEK 4 % w/v): 100%; % Survival at 28° C. ([3]; MEK 6 % w/v): 100%; % Survival at 37° C. ([3]; MEK 6 % w/v): 0%; % Survival at 28° C. ([3]; MEK 8 % w/v): 0.002%; % Survival at 37° C. ([3]; MEK 8 % w/v): 0%
